According to US20120329832A1, “Novel Insect-Repellent Coumarin Derivatives, Syntheses, and Methods of Use” (priority 2011, published 2012):
Where two headings read alike, the source gives them in different places.

Tests used:
drosophila = assay: Tests in vivo on drosophila: two-tube repellency test, Repulsive Index; parameters: key to RI against drosophila (FIG. 1) / RI (FIG. 2 and 3): RI = (N1−N2)/(N1+N2); N1 solvent tube, N2 compound tube; details: for repellent or attractant activity against drosophila, in words: in vivo; for repellent activity compared with DEET, in words: 1% concentration in EtOH; for RI against drosophila (FIG. 1): concentration not given
Protocol: Description of Test system. To evaluate repellent efficacy, compounds were added to test chambers, each containing 40 drosophila. The test was performed in 3 phases: 1) fast (flies aspirated to test tubes); 2) implementation of the system (addition of filter paper, addition of solvent containing test compound); and 3) counting of the flies (after 22 hours exposure to test compound). The number of drosophila in each tube were counted: number of flies in the “filter paper+Solvent” tube was designated N1 and the number of flies in the “filter paper impregnated with test compound” was designated N2.
The Repulsive Index (R1) is given by the following equation: (N1−N2)/(N1+N2).

Aedes mosquitoes = details: cited from earlier work
Culex = details: cited from earlier work
[1] = share of drosophila in solvent tube (AcOEt), product concentration not given
[2] = 10% solution of product, share of drosophila in EtOH tube
[3] = 10% solution of product, share of drosophila in product tube versus EtOH tube
[4] = 20% solution of product, share of drosophila in EtOH tube
[5] = 20% solution of product, share of drosophila in product tube versus EtOH tube
[6] = share of drosophila in product tube versus EtOH tube after 22 hours, product concentration not given
[7] = share of drosophila in solvent tube (filter paper + EtOH) after 22 hours, product concentration not given
[8] = 5% solution of product, share of drosophila in EtOH tube
[9] = 5% solution of product, share of drosophila in product tube versus EtOH tube

| SMILES | In vivo tests: Tube EtOH (drosophila; [2]) | In vivo tests: Tube product (drosophila; [3]) | In vivo tests: Tube EtOH (drosophila; [4]) | In vivo tests: Tube product (drosophila; [5]) | also measured |
| --- | --- | --- | --- | --- | --- |
| C=CCOc1ccc2ccc(=O)oc2c1 [EV04032] |  |  |  |  | In vivo tests: Tube AcOEt (drosophila; [1]): 62.25% |
| CCC(C)Oc1ccc2ccc(=O)oc2c1 (stereo not shown) [EV04058] | 91.22% | 8.78% | 88.02% | 11.98% |  |
| CCC(C)Oc1ccc2ccc(=O)oc2c1 (stereo not shown) [EV04070] | 92.79% | 7.21% | 91.34% | 8.66% | repellent or attractant activity against drosophila, in words (drosophila): significant repellent activity |
| C=C(C)C1CC=C(COc2ccc3ccc(=O)oc3c2)CC1 (stereo not shown) [EV04090] |  |  |  |  | In vivo tests: Tube CH2Cl2 (drosophila; share of drosophila in solvent tube (CH2Cl2), product concentration not given): 70.20%; Repulsive Index (RI) (drosophila; solvent CH2Cl2 according to Table 2, Tested Concentration 0.666 mmol/mL): 0.404 |
| CCC(C)COc1ccc2ccc(=O)oc2c1 (stereo not shown) [EV04094] | 89.63% | 10.37% | 86.47% | 13.53% |  |
| CCC(CC)Oc1ccc2ccc(=O)oc2c1 [EV04114] | 88.00% | 12.00% | 93.09% | 6.91% | repellent or attractant activity against drosophila, in words (drosophila): significant repellent activity |
| CC(=O)OC(C)C(=O)Oc1ccc2ccc(=O)oc2c1 (stereo not shown) [EV04122] |  |  |  |  | In vivo tests: Tube product (drosophila; [6]): 68.18%; In vivo tests: Tube EtOH (drosophila; [7]): 31.82% |
| CCCCN(CCCC)C(=O)COc1ccc2ccc(=O)oc2c1 [EV05120] | 90.36% | 9.64% | 85.58% | 14.42% | RI (FIG. 2 and 3) (drosophila; 10% solution in EtOH): ~0.8; RI (FIG. 2 and 3) (drosophila; 20% solution in EtOH): ~0.7; repellent or attractant activity against drosophila, in words (drosophila): acted as repellents |
| CCCCN(CCCC)C(=O)c1ccc2ccc(=O)oc2c1 [EV05138] | 82.54% | 17.46% | 86.27% | 13.73% |  |
| CC[C@H](C)OC(=O)c1ccc2ccc(=O)oc2c1 [EV05178] | 54.77% | 45.23% | 85.50% | 14.50% | RI (FIG. 2 and 3) (drosophila; 10% solution in EtOH): ~0.07; RI (FIG. 2 and 3) (drosophila; 20% solution in EtOH): ~0.7 |
| CCC(CC)Oc1ccc2oc(=O)ccc2c1 [EV06018] |  |  |  |  | In vivo tests: Tube AcOEt (drosophila; [1]): 81.07% |
| CCCCCOc1ccc2ccc(=O)oc2c1 [EV06026] | 87.53% | 12.47% | 94.12% | 5.88% |  |
| CC(C)C(C)Oc1ccc2ccc(=O)oc2c1 (stereo not shown) [EV06028] | 86.74% | 13.26% | 94.21% | 5.79% |  |
| CC(C)CCOc1ccc2ccc(=O)oc2c1 [EV06036] | 86.10% | 13.90% | 86.63% | 13.73% |  |
| CCCC(C)Oc1ccc2ccc(=O)oc2c1 (stereo not shown) [EV06044] | 83.91% | 16.08% | 96.12% | 3.82% | repellent or attractant activity against drosophila, in words (drosophila): significant repellent activity |
| CCC(CC)Oc1cc(=O)oc2ccccc12 [EV06062] | 93.10% | 6.90% | 98.26% | 1.74% | repellent activity compared with DEET, in words (drosophila): remains as good a repellent as DEET; In vivo tests: Tube EtOH (drosophila; 1% solution of product, share of drosophila in EtOH tube): 87.08%; In vivo tests: Tube product (drosophila; 1% solution of product, share of drosophila in product tube versus EtOH tube): 12.92%; In vivo tests: Tube EtOH (drosophila; [8]): 96.08%; In vivo tests: Tube product (drosophila; [9]): 3.20%; Repulsive Index (RI) (drosophila; EtOH, fourth Tested Concentration, 0.056 mmol/mL (1% solution)): 0.742 |

| SMILES | In vivo tests: Tube EtOH (drosophila; [2]) | In vivo tests: Tube product (drosophila; [3]) | In vivo tests: Tube EtOH (drosophila; [4]) | In vivo tests: Tube product (drosophila; [5]) | also measured |
| --- | --- | --- | --- | --- | --- |
| CCC(C)Oc1ccc2oc(=O)ccc2c1 (stereo not shown) [EV06068] | 90.91% | 9.09% | 93.85% | 6.15% |  |
| CCC(C)Oc1cc(=O)oc2ccccc12 (stereo not shown) [EV06088] | 90.50% | 9.50% | 91.04% | 8.96% |  |
| CCCCCCCCN(CCCCCCCC)C(=O)COc1ccc2ccc(=O)oc2c1 [EV06092] |  |  |  |  | In vivo tests: Tube product (drosophila; [6]): 32.34%; In vivo tests: Tube EtOH (drosophila; [7]): 67.66% |
| CCCCCCCCN(CCCCCCCC)C(=O)c1ccc2ccc(=O)oc2c1 [EV06096] | 67.84% | 32.16% | 95.33% | 4.67% | repellent or attractant activity against drosophila, in words (drosophila): acted as repellents |
| CCCC(C)Oc1cc(=O)oc2ccccc12 (stereo not shown) [EV06098] | 79.29% | 20.71% | 97.57% | 2.43% |  |
| CCCCCCOc1ccc2ccc(=O)oc2c1 [EV06110] | 91.09% | 8.91% | 89.06% | 10.94% |  |
| CC(C)C(C)Oc1cc(=O)oc2ccccc12 (stereo not shown) [EV06128] |  |  | 66.83% | 33.17% |  |
| CCCCCOc1cc(=O)oc2ccccc12 [EV06136] |  |  |  |  | In vivo tests: Tube AcOEt (drosophila; 20% solution of product, share of drosophila in AcOEt tube): 88.56%; In vivo tests: Tube product (drosophila; 20% solution of product, share of drosophila in product tube versus AcOEt tube): 11.44% |
| CC(C)CCOc1cc(=O)oc2ccccc12 [EV06140] | 90.10% | 9.90% | 91.92% | 8.08% |  |
| CCCCCCCCOc1ccc2ccc(=O)oc2c1 [EV06144] | 90.00% | 10.00% | 91.73% | 8.37% | In vivo tests: Tube EtOH (drosophila; [8]): 91.35%; In vivo tests: Tube product (drosophila; [9]): 8.65% |
| CCCCCCC(C)Oc1ccc2ccc(=O)oc2c1 (stereo not shown) [EV06148] | 93.66% | 6.34% | 96.00% | 4.00% | repellent activity compared with DEET, in words (drosophila): remained as effective a repellent as DEET |
| CCCC(C)Oc1ccc2oc(=O)ccc2c1 (stereo not shown) [EV06154] | 93.03% | 6.97% | 96.57% | 3.43% | repellent activity compared with DEET, in words (drosophila): performed effectively as a repellent |
| CC(C)(C)COc1ccc2ccc(=O)oc2c1 [EV06162] |  |  |  |  | repellent or attractant activity against drosophila, in words (drosophila): strong drosophila attractant |
| CCC(C)NC(=O)c1ccc2ccc(=O)oc2c1 (stereo not shown) [EV06166] |  |  |  |  | RI against drosophila (FIG. 1) (drosophila): ~0.2 |
| CCC(C)NC(=O)COc1ccc2ccc(=O)oc2c1 (stereo not shown) [EV06178] |  |  |  |  | RI against drosophila (FIG. 1) (drosophila): ~−0.2; repellent or attractant activity against drosophila, in words (drosophila): appeared to provide attractant activity |
| CCC(C)OC(=O)N1CCCCC1CCO (stereo not shown) [picaridine, hydroxyethyl isobutyl piperidine carboxylate] |  |  |  |  | RI against drosophila (FIG. 1) (drosophila): > 0.6; protection against Aedes mosquitoes (Aedes mosquitoes; 7% solution): little or no protection; protection time against Aedes (Aedes mosquitoes; 15% solution): about one; protection time against Culex (Culex; 7% solution): about 2.5 hours; protection time against Culex (Culex; 15% solution): 4.8 h |
